The record followed here is patent US8129557B2, “Phosphonic acid diester derivative and method for producing thereof” (priority 2005, dated 2012).

One series concerns the target T1, E-coli GGT (Escherichia coli, UniProt P18956).
T1 construct: was used as a purified enzyme of E-coli GGT; made in house
T1 sequence (P18956 26-390 limits assumed): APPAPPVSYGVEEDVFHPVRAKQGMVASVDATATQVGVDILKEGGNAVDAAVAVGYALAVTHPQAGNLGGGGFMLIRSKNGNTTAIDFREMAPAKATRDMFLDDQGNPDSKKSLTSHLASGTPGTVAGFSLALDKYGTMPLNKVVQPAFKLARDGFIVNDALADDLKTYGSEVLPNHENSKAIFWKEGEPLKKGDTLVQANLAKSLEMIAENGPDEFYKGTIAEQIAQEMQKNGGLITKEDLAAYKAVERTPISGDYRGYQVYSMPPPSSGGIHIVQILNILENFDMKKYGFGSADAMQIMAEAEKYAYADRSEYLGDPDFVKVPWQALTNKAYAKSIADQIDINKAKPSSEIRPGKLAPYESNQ
T1 sequence (P18956 391-580 limits assumed): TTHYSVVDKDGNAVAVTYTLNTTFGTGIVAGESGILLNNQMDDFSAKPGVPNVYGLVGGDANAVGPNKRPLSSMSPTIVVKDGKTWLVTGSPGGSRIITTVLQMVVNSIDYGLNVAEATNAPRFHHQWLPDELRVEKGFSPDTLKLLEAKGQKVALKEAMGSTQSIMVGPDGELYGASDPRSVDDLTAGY
Kind of series: Second-order rate constant kon of E-coli GGT inactivation (continuous or discontinuous assay). In kind it is biochemical, Escherichia coli K-12. As to conditions: second-order rate constant for enzyme inactivation; pH 5.5, 25° C. From the text:
(§1) Purified enzyme of E-coli GGT and crude enzyme of human GGT were employed as GGT samples for an inhibition experiment. The enzyme whose physicochemical properties are described in the Document (Hideyuki Suzuki, Hidehiko Kumagai, Tatsurokukro Tochikura “gamma-Glutamyltranspeptidase from Escherichia coli K-12: Purification and Properties” Journal of Bacteriology, December 1986, Vol. 168, No. 3, p. 1325-1331) was used as a purified enzyme of E-coli GGT. Enzyme [HC-GTP (product number), 603AA (lot number)] manufactured by Asahi Kasei Co., Ltd. was used as a crude enzyme of human GGT. The crude enzyme of human GGT contained a large amount of bovine serum albumin (BSA) to stabilize the enzyme, and the GGT concentration was 1% or lower.
In the hydrolytic assay of E. coli GGT, 10 μL of a […] enzyme solution was added to a 100 mM succinic acid-sodium hydroxide buffer solution (pH 5.5) in a total volume of 1 mL containing 100 μL of 2 μM substrate aqueous solution. The product, 7-amino-4-methylcoumarin (AMC), released along with the enzyme reaction was traced continuously at 25° C. using a fluorospectrophotometer F-2000 manufactured by Hitachi Ltd. (excitation wavelength: 350 nm, emission wavelength: 440 nm). The AMC concentration was separately measured by forming a calibration curve showing the relation of the fluorescence intensity (F) and the concentration (C) using standard solutions and was calculated from the relational expression (1) of the fluorescence intensity alteration (ΔF) and concentration alteration (ΔC).
(§2) Next, a second-order rate constant for enzyme inactivation kon was measured by either a continuous assay or a discontinuous assay. Both of the continuous and discontinuous assay for measuring inhibitory activity to GGT were carried out under a pseudo-first-order reaction condition.
(§3) In the continuous assay, while the temperature was kept at 25° C., the 100 mM succinic acid-sodium hydroxide buffer solutions (pH 5.5) containing an inhibitor in various concentrations and the substrate were preincubated for equilibrium. Herein, 0.2 μM of the substrate was used for the case of E-coli GGT and 0.4 μM of the substrate was used for the case of human GGT. Thereafter, the enzyme solution of the E-coli GGT was added in a manner that the final concentration became 0.04 nM and also the human GGT crude enzyme solution was added in a manner that the final concentration became 5 μg/mL. Accordingly, the reaction was started and the release of AMC (increase of the fluorescence intensity) was continuously traced for 10 minutes.
(§4) The fluorescence intensity data obtained from the respective curves was applied to the following pseudo-first-order rate equation (2) and the observed pseudo-first-order rate constant for enzyme inactivation (kobs) was calculated by nonlinear regression analysis [Stein, R. L. et al. Biochemistry 26, 2682-2689 (1987)].
(§5) [Equation 2] [P]=[P]∞[1−exp(−kobst)] (2)
(§6) When the kobs was plotted against to the inhibitor concentration ([I]), a linear relation was obtained until the maximum extent of the experimentally possible inhibitor concentration. Therefore, the second-order rate constant for enzyme inactivation kon was calculated using the following equation (3) deduced from the kinetic mechanism.
(§7) [drawing 37] [Equation 3] kobs=kon[I]/(1+[S]/Km) (3)
(§8) Herein, S denotes 7-(γ-L-glutamylamino)-4-methylcoumarin. The substrate concentration [S] for E-coli GGT is 0.2 μM and the Km value is 0.2 μM. […] The kinetic data was obtained by nonlinear regression analysis using Kaleida graph, a program produced by Synergy Software.
Further, in the discontinuous assay, an inhibitor in various concentrations was dissolved in 100 mM succinic acid-sodium hydroxide buffer solution (pH 5.5) and the enzyme solution was added to the resulting buffer solutions. […]

A further series deals with T2, human GGT (Homo sapiens, UniProt P19440).
T2 construct: purchased Asahi Kasei Co., Ltd. HC-GTP (lot 603AA)
T2 sequence (P19440 1-380 limits assumed): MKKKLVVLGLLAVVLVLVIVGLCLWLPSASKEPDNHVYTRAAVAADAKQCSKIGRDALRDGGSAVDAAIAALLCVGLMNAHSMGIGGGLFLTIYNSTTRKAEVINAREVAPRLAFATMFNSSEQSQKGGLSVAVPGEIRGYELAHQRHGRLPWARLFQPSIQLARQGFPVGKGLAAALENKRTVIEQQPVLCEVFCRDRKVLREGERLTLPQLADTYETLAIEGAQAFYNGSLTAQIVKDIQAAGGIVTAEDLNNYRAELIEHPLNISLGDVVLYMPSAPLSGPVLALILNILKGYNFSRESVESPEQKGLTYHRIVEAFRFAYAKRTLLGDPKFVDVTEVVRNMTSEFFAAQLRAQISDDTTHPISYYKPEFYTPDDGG
T2 sequence (P19440 381-569 limits assumed): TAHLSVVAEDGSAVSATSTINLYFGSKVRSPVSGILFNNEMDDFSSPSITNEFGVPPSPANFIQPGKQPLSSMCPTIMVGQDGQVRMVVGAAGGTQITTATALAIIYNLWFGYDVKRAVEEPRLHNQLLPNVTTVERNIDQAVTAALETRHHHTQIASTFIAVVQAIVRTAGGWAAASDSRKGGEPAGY
Nature of the series: Second-order rate constant kon of human GGT inactivation (continuous or discontinuous assay). The following applies: for kon Human GGT: second-order rate constant for enzyme inactivation, pH 5.5, 25° C. The class given is biochemical.
Excerpt: as §1
In the hydrolytic assay of human GGT, the measurement was carried out in the same manner as that in the hydrolytic assay of E-coli GGT, except that the substrate concentration was changed to […] and therefore, the explanation of the common portions was omitted.
as §2, §3, §4, §5, §6, §7, §8
Further, in the discontinuous assay, an inhibitor in various concentrations was dissolved in 100 mM succinic acid-sodium hydroxide buffer solution (pH 5.5) and the enzyme solution was added to the resulting buffer solutions. Herein, in the case of E-coli GGT, the enzyme solution was added in a manner that the final concentration became 0.4 nM and also the human GGT crude enzyme solution was added in a manner that the final concentration became 0.5 mg/mL. Accordingly, the reaction of the inhibitor and each GGT was conducted at 25° C. An aliquot (10 μL) of each of the reaction solutions were sampled at every specified time to measure the remaining enzyme activity by the above-mentioned enzyme activation method. The remaining enzyme activity at every time was analyzed by nonlinear regression using the pseudo-first-order rate equation (4) of enzyme inactivation to calculate the value of kobs.
[Equation 4] αt/α0=exp(−kobst) (4) […]

The nature of series [1]: Chemical stability: hydrolysis ratio after storage in water at room temperature. The class given is physicochemical. As to conditions: stored in water at room temperature for 12 hours. As to the method:
Herein, the hydrolysis ratios of the reactive compounds of Examples 1 to 11 were measured after the respective compounds were stored in water at room temperature. In this connection, the compounds other than the compound of Example 10 were stored in water for 12 hours and the compound of Example 10 was stored in water for 112 hours.

Series [2] can be described thus: Hydrolysis ratio of Example 7 in alkaline, neutral or acidic solvent. In kind it is physicochemical. The following applies: for Hydrolysis ratio (%): after 12 hours. As to the method:
Herein, the compound of Example 7 was dissolved in a solvent shown in Table 4 and kept at 23.5° C., and the hydrolysis ratio of the compound of Example 7 was measured after 12 hours.

The test system of series [3] is glutamine-dependent asparagine synthetase. Nature of the series: Inhibition of glutamine-dependent asparagine synthetase. In kind it is biochemical. As to conditions: 10 mM compound, incubated for 2 hours. The source says: Therefore, the phosphonic acid diester derivative (1) specifically reacts on GGT.

Regarding `COP(=O)(CCC(N)C(=O)O)Oc1ccc([N+](=O)[O-])cc1` (stereo not drawn) [Example 7, 2-amino-4-[methyl(4-nitrophenyl)phosphono]butanoic Acid], the “kon E-coli GGT” value at E-coli GGT stood at 35000 M^−1S^−1. The “kon Human GGT” value on human GGT is recorded as 125.1 M^−1S^−1. The “Hydrolysis ratio (%)” value turned out to be 48.6% in series [1]; 0% in series [2] (0.1 N CF3COOD, pH <1, 23.5° C.); 40% in series [2] (0.1 N CH3COOD, pH 2.9, 23.5° C.); 0% in series [2] (0.1 N DCl + MeOH, pH <1, 23.5° C.); 0% in series [2] (0.1 N DCl, pH <1, 23.5° C.); 100% in series [2] (0.1 N Na2CO3, pH 11.6, 23.5° C.). Further, the “Hydrolysis ratio (%)” value in series [2] (0.1 N NaHCO3, pH 8.3, 23.5° C.) is reported as 100%; in series [2] (D2O, pH 7, 23.5° C.), 49%. Further, the entries for the “hydrolysis ratio in words” value in series [2] (under the acidic condition) and in series [2] (under the alkaline condition) were “low” and “high”, respectively.
Take `COP(=O)(CCC(N)C(=O)O)Oc1cccc(CC(=O)O)c1` (stereo not drawn) [Example 11, 2-amino-4-{[3-(carboxymethyl)phenyl](methyl)phosphono}butanoic Acid]: the “kon E-coli GGT” value on E-coli GGT is recorded as 150 M^−1S^−1. In addition, at human GGT (position relative to the straight line), the “plot of log kon (human GGT) against pKa of aryl group, FIG. 4” value is recorded as “deviate upward”. The “kon of human GGT inactivation relative to the compound of Example 12” value at human GGT (ratio of kon 51 to kon 0.33) is “about 155 times”. Also, the “kon Human GGT” value on human GGT turned out to be 51 M^−1S^−1. Further, the “Hydrolysis ratio (%)” value in series [1] was determined as 0%. Also, the “inhibition of the function of glutamine-dependent asparagine synthetase” value in series [3] is “did not inhibit”.
